Data: patent publication US20190038784A1, “TAU PET IMAGING LIGANDS” (Janssen Pharmaceutica NV, priority 2016, published 2019)

Tests used:
[1] = biological target: T1, extracted human amyloid-beta aggregates (Homo sapiens, UniProt P05067); assay: Competitive radioligand binding assay with [3H]-AV-45 on amyloid plaque preps from human AD brain; settings: for Ki: calculated from IC50, KD Aβ 7.85 nM for 3H-AV45, 10 nM RL; for binding to extracted human amyloid-beta aggregates: up to 10 μM, radiolabel displacement of [3H]-AV-45
T1 construct: from tissue; host or cells: human AD brain, occipital cortex
T1 sequence (P05067 672-713 limits assumed): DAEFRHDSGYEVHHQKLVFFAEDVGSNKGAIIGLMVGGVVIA
Method: Enriched aggregated β-amyloid preps were prepared from frozen human AD brain samples (10 g—occipital cortex with high amyloid plaques load) that were homogenized with 7-fold vol of cold homogenization buffer (250 mM sucrose, 20 mM Tris base, 1 mM EDTA, 1 mM EGTA and PhosSTOP phosphatase and cOmplete EDTA-free protease inhibitor) on ice. After centrifugation at 27 000×g for 20 min at 4° C. cell debris was removed. Supematant containing amyloid plaques was aliquoted and stored at −80° C.
(§1) The competitive radioligand binding assays measure the binding of a radiolabeled reference ligand in the presence of a dose response concentration range of test compounds.
(§2) Values for half-maximal inhibitory concentration (IC50) were determined from displacement curves of at least two independent experiments using GraphPad Prism software (GraphPad Software, San Diego, Calif.).
To determine compound binding to aggregated β-amyloid a similar assay was put in place but with some minor modifications. Briefly, amyloid preps were diluted to 150 μg protein/ml in 50 mM Tris with 0.1% BSA and 5% ethanol. ^3H-AV-45 (florbetapir-specific activity; 45.95 Ci/mmol) was added at a final concentration of 10 nM to increasing amounts of test compound in the presence of 30 μg protein of amyloid plaques prep. Nonspecific binding was determined in the presence of 500 μM Thioflavin T. After 150 min incubation at room temperature, the binding mixtures were filtered over GF/B glass filters. The filters were washed three times with PBS buffer containing 20% ethanol. Subsequent steps were identical to those described for the aggregated tau preps.

[2] = tested on: neurofibrillary tangles (NFTs) in AD brain slices; assay: Autoradiography blocking study of [18F]Co. No. 1 on human AD brain slices; assay type: binding; settings: 1 μM cold blocker, Braak stage V-VI slices
Method: Air-dried frozen, 20-μm-thick slices of an AD-patient (Braak stage V-VI) were incubated for 60 min with [^18F]Co. No. 1 (7.4 kBq/500 JpL per section) and subsequently washed with mixtures of phosphate buffered saline (PBS) and ethanol as described elsewhere (Xia C F, Arteaga J, Chen G, et al. [(18)F]T807, a novel tau positron emission tomography imaging agent for Alzheimer's disease. Alzheimers Dement. 2013, 1-11, doi: 10.1016/i.ialz.2012.11.008). To assess specificity of binding, slices were incubated with tracer in the presence of 1 μM of authentic T808 or […].
No. 1. After drying, slices were exposed to a phosphor storage screen (super-resolution screen, Perkin Elmer). Screens were read in a Cyclone Plus system (Perkin Elmer, Waltham, Mass., U.S.A.) and analyzed using Optiquant software. Results are expressed as digital light units per square mm (DLU/mm^2). Adjacent AD slices were immunostained with anti-tau (AT8) and anti-Aβ antibodies (AG8), to correlate with [^18F]Co. No. 1 binding. […] The binding pattern corresponds well with the Tau pathology as detected with AT8 IHC on adjacent slides (see FIG. 1). To assess the specificity of the tracer binding to neurofibrillary tangles (NFTs), blocking studies with authentic Co. No. 1 and T808 were performed. […] Blocking percentages were calculated as (DLU/mm^2 in the presence of […] blocker)/(DLU/mm^2 tracer only).

[3] = tested on: extracted human tau (aggregated tau, PHF); assay: Competitive radioligand binding assay with [3H]-T808 on aggregated tau preps from human AD brain; settings: Aβ Ki versus Tau Ki
Method: (§3) Enriched aggregated tau fractions were prepared according to a slightly modified version of the protocol described by Greenberg and Davies (Greenberg S G, Davies P. A preparation of Alzheimer paired helical filaments that display distinct tau proteins by polyacrylamide gel electrophoresis. Proc. Natl. Acad. Sci. 1990; 87: 5827-5831) using human AD brain tissue (occipital cortex with high tau fibril load). Briefly, frozen human AD brain samples (˜10 g) were homogenized with 10 vol of cold homogenization buffer (10 mM Tris, 800 mM NaCl, 1 mM EGTA, 10% sucrose, pH 7.4 containing PhosSTOP phosphatase and cOmplete EDTA-free protease inhibitor (Roche, Vilvoorde, Belgium)) on ice. After centrifugation at 27 000×g for 20 min at 4° C. the supernatant was recovered and 1% (w/v) N-lauroylsarcosine and 1% (v/v) 2-mercaptoethanol were added. The N-lauroylsarcosine/2-mercaptoethanol supernatant was incubated for 2 h at 37° C. while shaking on an orbital shaker. Subsequently, ultracentrifugation at 108 000×g for 1.5 h at room temperature enriched aggregated tau in the pellet. Supematant was removed and the pellet was carefully rinsed twice with a small amount of TBS (50 mM Tris, 150 mM NaCl, pH 7.4). Finally, the aggregated tau pellet was recovered in TBS and resuspended to ensure sample homogeneity. Small aliquots were stored at −80° C.
as §1
(§4) Briefly, aggregated tau preps were diluted to 100 μg protein/ml in PBS buffer with 5% ethanol. In a 96-well format, ^3H-T808 (specific activity; 32.97 Ci/mmol) was added at a final concentration of 10 nM to increasing amounts of test compound in the presence of 20 μg protein of aggregated tau prep. Nonspecific binding was defined as the number of counts remaining in the presence of 50 μM Thioflavin T (common beta sheet binder). After 2 h incubation at room temperature, the unbound ligand is removed by filtration of the binding mixtures over GF/B glass filters using a Filtermate 96 harvester instrument (Perkin Elmer, Zaventem, Belgium). The filters were washed three times with PBS buffer containing 20% ethanol. After overnight drying of the filter plate, Microscint O liquid (Perkin Elmer) was added and the amount of radiolabeled ligand bound to the fibrils is measured by liquid scintillation counting in a Topcount instrument (Packard Instrument Company, Connecticut, USA)
as §2

[4] = biological target: T2, extracted human tau (aggregated tau, PHF) (Homo sapiens, UniProt P10636); assay: as above; settings: for Ki: mean of at least two measurements with SD, calculated from IC50, KD PHF 6.275 nM, 10 nM RL; for IC50: radiolabel displacement of [3H]-T808, 10 nM, read-out: pIC50, binding to extracted human tau (converted)
T2 construct: Tau Ki; other: mean of at least two measurements with SD; other: radiolabel displacement of [3H]-T808, 10 nM
T2 sequence (P10636 623-695 limits assumed): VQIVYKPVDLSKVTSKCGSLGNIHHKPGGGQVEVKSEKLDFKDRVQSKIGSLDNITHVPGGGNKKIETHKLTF
Method: as §3, §1, §4, §2

[5] = MicroPET imaging, Wistar rats; assay type: in vivo; settings: baseline scan, whole brain, IV 50 MBq
Method: Dynamic 120 min microPET scans were performed on a Focus™ 220 microPET scanner (Concorde Microsystems, Konxville, Tenn., USA) on three female Wistar rats simultaneously, which were kept under gas anesthesia during the whole procedure (2.5% isoflurane in 02 at 1 L/min flow rate). The head of the animals was placed central, in the field of view, of the microPET scanner. Scans were acquired in list mode and acquisition data were Fourier rebinned in 24 time frames (4×15 s, 4×60 s, 5×180 s, 8×300 s, 3×600 s). Data, which were 3D maximum a posteriori (3D-MAP) reconstructed, were manually aligned with a rat brain [^18F]FDG template in Paxinos coordinates using an affine transformation, to allow predefined volumes of interest (VOIs) analysis. Time-activity curves (TACs) of the whole brain were generated using VOIs with PMOD software (v 3.2, PMOD Technologies Ltd., Zdtrich, Switzerland). Radioactivity concentration in the brain was expressed as standardized uptake value (SUV, calculated as (radioactivity in Bq in brain/mL)/(total injected dose (Bq)/body weight in g)) as a function of time after tracer injection. Scans were started immediately after IV injection of 50 MBq [^18F]Co. No. 1 or [^18F]T807 (n=3/tracer). […]

[6] = MicroPET imaging, rhesus monkey (experiment 2); assay type: in vivo, rhesus monkey (Macaca mulatta); settings: baseline scan
Method: A dynamic 120-min μPET scan with [^18F]Co. No. 1 or [^18F]T807 was performed with a Focus 220 μPET scanner on a male rhesus monkey (6 y-old Macaca mulatta, 7.6 kg), that was sedated with ketamine (Ketalar®) and xylazine (Rompun®) via intramuscular (IM) injection. During scanning the monkey received repeatedly an additional dose of ketamine/xylazine via i.v. injection. O2 saturation in blood, breathing frequency and heartbeat frequency were monitored during the entire experiment. The head of the animal was placed central in the field of view of the μPET scanner. Scans were acquired in list mode and Fourier rebinned in 24 time frames (4×15 s, 4×60 s, 5×180 s, 8×300 s, 3×600 s). Data were reconstructed using a 3D maximum a posteriori (3D-MAP) iterative reconstruction. TACs of the whole brain were generated using VOIs with PMOD software. Radioactivity concentration in the brain is expressed as SUV as a function of time after tracer injection. Scans were started immediately after i.v. injection of 185 MBq of [^18F]Co. No. 1 or [^18F]T807 via the vena saphena of the right leg. Results of the 120-min baseline scan of [^18F]Co. No. 1 and [^18F]T807 are shown in FIGS. 7a and 7b, respectively. […] TACs of the baseline scan of [^18F]T807 in the brain show a slower initial brain uptake (SUV value of ˜1.3, time to peak uptake: 15 min) and wash-out (FIG. 8). […]

[7] = MicroPET imaging, rhesus monkey (experiment 1); assay type: in vivo, rhesus monkey (macaca mulatta); settings: baseline scan
Method: A dynamic 120-min microPET scan with [^18F]Co. No. 1 or [^18F]T807 was performed on a Focus™ 220 microPET scanner (Concorde Microsystems, Knoxville, Tenn., USA) on, respectively, a female rhesus monkey (9 year-old macaca mulatta, 5.3 kg) and a male rhesus monkey (6 year-old macaca mulatta, 7.6 kg), that was sedated with ketamine (Ketalar®) and xylazine (Rompun®) via intramuscular (IM) injection. During scanning the monkey received repeatedly an additional dose of ketamine/xylazine via IV injection. The O2 saturation in the blood, the breathing frequency and heartrate were monitored during the entire experiment. The head of the animal was placed central, in the field of view, of the microPET scanner. Scans were acquired in list mode and acquisition data were Fourier rebinned in 24 time frames (4×15 s, 4×60 s, 5×180 s, 8×300 s, 3×600 s). Data were reconstructed using a 3D maximum a posteriori (3D-MAP) iterative reconstruction. TACs of the whole brain, corpus callosum, cerebellum and entorhinal cortex were generated using VOIs with PMOD software. Radioactivity concentration in the brain is expressed as SUV as a function of time after tracer injection (FIGS. 5a and 5b). Scans were started immediately after IV injection of 185 MBq of [^18F]Co. No. 1 of [^18F]T807 via the vena saphena of the right leg. […]

| SMILES | Ki [1] [nM] | binding to extracted human amyloid-beta aggregates [1] | inhibition of [18F]Co. No. 1 binding to AD brain slices [2] [%] | Selectivity (ratio) [3] | Ki [4] [nM] | IC50 [4] [nM] | initial brain uptake, SUV value in the brain [5] | time to peak uptake ([6]; brain) [min] | initial brain uptake, SUV value ([6]; i.v. 185 MBq, male monkey) | wash-out from brain [7] | initial brain uptake, SUV value ([7]; brain, IV 185 MBq) |
| --- | --- | --- | --- | --- | --- | --- | --- | --- | --- | --- | --- |
| Cc1cc(Nc2ccc3nc(F)ccc3n2)ccn1 [Co. No. 1] | > 4400 | no measurable binding | 99 | >540 | 7.9 ± 2.5 | 20 | – | – | – | – | – |
| Cc1cnccc1Nc1ccc2nc(F)ccc2n1 [Co. No. 2] | > 4400 | no measurable binding | – | >325 | 13.5 ± 2.2 | 31.6 | – | – | – | – | – |
| Fc1ccc2nc(Nc3ccncc3)ccc2n1 [Co. No. 3] | > 4400 | no measurable binding | – | >380 | 11.3 ± 2.8 | 25.1 | – | – | – | – | – |
| FCCC1CCN(c2ccn3c(n2)nc2ccccc23)CC1 [T808, 2-[4-(2-fluoroethyl)-1-piperidinyl]-pyrimido[1,2-a]benzimidazole, reference compound] | – | – | 98 | – | – | – | – | – | – | – | – |
| Fc1ccc(-c2ccc3c(c2)[nH]c2ccncc23)cn1 [[^18F]T807, 7-(6-fluoropyridin-3-yl)-5H-pyrido[4,3-b]indole] | – | – | – | – | – | – | ~1.6 | 15 | ~1.3 | slower wash-out | ~1.3 |
